Measurements from ChEMBL document CHEMBL4420076, “Amylin and calcitonin receptor agonist” (2017).
Numbered stars: 1 amine (or outer) side, 2 acyl side, 3 side chain; on linkers, the order of the positions; unused ones are H or OH. Peptide text beside a SMILES is read from it. * marks the point of attachment. C20 diacid = O=C(O)CCCCCCCCCCCCCCCCCCC(=O)*; γGlu = O=C(O)[C@H](CCC(=O)[*:2])N[*:1]; C14 diacid = O=C(O)CCCCCCCCCCCCC(=O)*

Key:
Calcitonin receptor [1] = biological target: T1, Calcitonin receptor (Homo sapiens, UniProt P30988); assay: Agonist activity at human calcitonin receptor expressed in BHK570 cells assessed as increase in intracellular cAMP concentration incubated for 3 hrs in absence of albumin by CRE luciferase reporter gene assay; assay type: functional, cell-based
T1 sequence (P30988 whole entry): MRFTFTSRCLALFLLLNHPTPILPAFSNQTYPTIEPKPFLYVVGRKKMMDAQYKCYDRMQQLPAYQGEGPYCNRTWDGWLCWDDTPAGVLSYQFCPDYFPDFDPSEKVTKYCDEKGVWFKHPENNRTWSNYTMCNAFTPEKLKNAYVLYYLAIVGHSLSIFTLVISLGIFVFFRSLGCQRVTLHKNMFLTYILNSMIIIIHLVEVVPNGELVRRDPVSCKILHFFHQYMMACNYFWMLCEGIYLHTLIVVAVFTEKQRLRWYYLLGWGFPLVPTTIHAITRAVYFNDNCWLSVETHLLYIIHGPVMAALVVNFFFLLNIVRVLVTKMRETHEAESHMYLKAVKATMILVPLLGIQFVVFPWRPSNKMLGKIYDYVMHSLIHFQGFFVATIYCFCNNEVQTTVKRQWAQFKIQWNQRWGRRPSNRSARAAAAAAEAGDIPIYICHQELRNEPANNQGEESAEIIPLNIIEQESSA

Rattus norvegicus [2] = assay: Reduction in food intake in Sprague-Dawley rat at 3 nmol/kg measured 24 to 48 hrs post dose relative to control; assay type: functional; parameters: scale not given: the % may be the effect or the level left
[3] = Solubility in 100 mM bistrispropane buffer at pH 8.0 incubated for 18 hrs by UPLC analysis; assay type: physicochemical
Calcitonin receptor [4] = biological target: T1, Calcitonin receptor; assay: Agonist activity at human calcitonin receptor expressed in BHK570 cells assessed as increase in intracellular cAMP concentration incubated for 3 hrs in presence of 10% FBS by CRE luciferase reporter gene assay; assay type: functional, cell-based
[5] = Solubility in 100 mM bistrispropane buffer at pH 6.5 incubated for 18 hrs by UPLC analysis; assay type: physicochemical
[6] = biological target: T2, Amylin receptor AMY3; CALCR/RAMP3 (Rattus norvegicus, UniProt P32214+Q9JJ73); assay: Displacement of [125I]-labeled rat amylin from rat amylin receptor expressed in BHK tkts13 cell membranes co-expressing RAMP3 incubated for 120 mins by scintillation proximity assay
T2 sequence (P32214 whole entry): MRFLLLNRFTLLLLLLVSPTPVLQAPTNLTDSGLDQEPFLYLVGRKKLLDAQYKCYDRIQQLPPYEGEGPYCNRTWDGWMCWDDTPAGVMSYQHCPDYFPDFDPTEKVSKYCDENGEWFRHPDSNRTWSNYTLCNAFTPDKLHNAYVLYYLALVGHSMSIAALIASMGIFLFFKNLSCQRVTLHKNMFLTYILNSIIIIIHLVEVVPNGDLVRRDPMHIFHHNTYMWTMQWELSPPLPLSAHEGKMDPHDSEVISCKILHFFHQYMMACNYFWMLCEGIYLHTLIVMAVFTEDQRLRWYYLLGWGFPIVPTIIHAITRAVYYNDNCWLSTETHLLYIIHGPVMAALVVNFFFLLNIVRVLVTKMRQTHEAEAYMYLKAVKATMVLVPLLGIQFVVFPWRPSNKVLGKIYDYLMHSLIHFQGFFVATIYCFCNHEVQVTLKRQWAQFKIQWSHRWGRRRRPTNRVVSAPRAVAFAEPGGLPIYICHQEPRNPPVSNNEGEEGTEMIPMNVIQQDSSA
T2 sequence (Q9JJ73 whole entry): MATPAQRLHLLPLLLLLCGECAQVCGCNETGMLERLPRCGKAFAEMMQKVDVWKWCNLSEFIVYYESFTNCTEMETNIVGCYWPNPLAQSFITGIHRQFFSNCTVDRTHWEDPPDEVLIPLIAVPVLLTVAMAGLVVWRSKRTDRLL

[7] = Solubility in 100 mM bistrispropane buffer at pH 7.0 incubated for 18 hrs by UPLC analysis; assay type: physicochemical
[8] = biological target: T3, Amylin receptor AMY3; CALCR/RAMP3 (Homo sapiens, UniProt O60896+P30988); assay: Agonist activity at human amylin receptor expressed in BHK570 cells co-expressing RAMP3 assessed as increase in intracellular cAMP concentration incubated for 3 hrs in absence of albumin by CRE luciferase reporter gene assay; assay type: functional, cell-based
T3 sequence (P30988 whole entry): T1 sequence (P30988 whole entry)
T3 sequence (O60896 whole entry): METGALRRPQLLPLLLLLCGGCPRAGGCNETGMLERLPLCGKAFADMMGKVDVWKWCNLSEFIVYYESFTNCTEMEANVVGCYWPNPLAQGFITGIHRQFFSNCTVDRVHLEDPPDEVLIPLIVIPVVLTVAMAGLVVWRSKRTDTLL

[9] = Solubility in 100 mM bistrispropane buffer at pH 7.5 incubated for 18 hrs by UPLC analysis; assay type: physicochemical
[10] = Stability in pH 7.5 buffer assessed as lag time for fibril formation at 1 uM by Thioflavin T based fluorescence assay; assay type: physicochemical; conditions: pH 7.5, 1 µM
[11] = biological target: T3, Amylin receptor AMY3; CALCR/RAMP3; assay: Displacement of [125I]-labeled rat amylin from human amylin receptor expressed in BHK tkts13 whole cells co-expressing RAMP3 incubated for 60 mins by scintillation proximity assay; assay type: cell-based
[12] = Stability in pH 7.5 buffer assessed as compound recovery at 1 uM by Thioflavin T based fluorescence assay; assay type: physicochemical; conditions: read-out: Drug recovery
[13] = Solubility in 100 mM glycylglycine buffer at pH 3.0 incubated for 18 hrs by UPLC analysis; assay type: physicochemical
Rattus norvegicus [14] = assay: Reduction in food intake in Sprague-Dawley rat at 3 nmol/kg measured 0 to 24 hrs post dose relative to control; assay type: functional; parameters: scale not given: the % may be the effect or the level left
[15] = Solubility in 100 mM glycylglycine buffer at pH 4.0 incubated for 18 hrs by UPLC analysis; assay type: physicochemical
[16] = biological target: T3, Amylin receptor AMY3; CALCR/RAMP3; assay: Agonist activity at human amylin receptor expressed in BHK570 cells co-expressing RAMP3 assessed as increase in intracellular cAMP concentration incubated for 3 hrs in presence of 10% FBS by CRE luciferase reporter gene assay; assay type: functional, cell-based
[17] = Solubility in 100 mM bistrispropane buffer at pH 6.0 incubated for 18 hrs by UPLC analysis; assay type: physicochemical
[18] = Solubility in 100 mM glycylglycine buffer at pH 5.0 incubated for 18 hrs by UPLC analysis; assay type: physicochemical
Calcitonin receptor [19] = biological target: T1, Calcitonin receptor; assay: Displacement of [125I]-labeled human calcitonin from human calcitonin receptor expressed in BHK tkts13 cell membranes incubated for 1 hr by scintillation proximity assay

Row | SMILES | EC50 (Calcitonin receptor [1]) | Activity (Rattus norvegicus [2]) | solubility at 18 h [3] | EC50 (Calcitonin receptor [4]) | solubility at 18 h [5] | IC50 [6] | solubility at 18 h [7] | EC50 [8] | solubility at 18 h [9] | Time [10] | IC50 [11] | remaining at 1 µM [12] | solubility at 18 h [13] | Activity (Rattus norvegicus [14]) | solubility at 18 h [15] | EC50 [16] | solubility at 18 h [17] | solubility at 18 h [18] | IC50 (Calcitonin receptor [19])
1 | CC(C)C[C@H](NC(=O)CNC(=O)[C@H](CO)NC(=O)[C@H](C)NC(=O)CC[C@H](NC(=O)CCCCCCCCCCCCCCCCCCC(=O)O)C(=O)O)C(=O)N[C@@H](CO)C(=O)N[C@H](C(=O)N[C@@H](CC(C)C)C(=O)N[C@H](C(=O)N[C@@H](CC(C)C)C(=O)NCC(=O)N[C@@H](CCCNC(=N)N)C(=O)N[C@@H](CC(C)C)C(=O)N[C@@H](CO)C(=O)N[C@@H](CCC(N)=O)C(=O)N[C@@H](CCC(=O)O)C(=O)N[C@@H](CC(C)C)C(=O)N[C@@H](Cc1cnc[nH]1)C(=O)N[C@@H](CCC(=O)O)C(=O)N[C@@H](CC(C)C)C(=O)N[C@@H](CCC(N)=O)C(=O)N[C@H](C(=O)N[C@@H](Cc1ccc(O)cc1)C(=O)N1CCC[C@H]1C(=O)N[C@@H](CCCNC(=N)N)C(=O)N[C@H](C(=O)N[C@@H](CCC(=O)O)C(=O)N[C@H](C(=O)NCC(=O)N[C@@H](CO)C(=O)N[C@@H](CCC(N)=O)C(=O)N[C@H](C(=O)N[C@@H](Cc1ccc(O)cc1)C(N)=O)[C@@H](C)O)[C@@H](C)O)[C@@H](C)O)[C@@H](C)O)C(C)C)[C@@H](C)O ({C20 diacid-γGlu}-ASGLSTLVLGRLSQELHELQTYPRTETGSQTY-NH2) | 40 pM | 24% | ≥ 200 µM | 142 pM | ≥ 200 µM | 91 pM | ≥ 200 µM | 52 pM | ≥ 200 µM | 8.4 h | 1480 pM | 90% | ≥ 200 µM | 34% | – | – | – | – | –
2 | CC(C)C[C@H](NC(=O)CNC(=O)[C@H](CO)NC(=O)[C@H](C)NC(=O)COCCOCCNC(=O)COCCOCCNC(=O)CC[C@H](NC(=O)CCCCCCCCCCCCCCCCC(=O)O)C(=O)O)C(=O)N[C@@H](CO)C(=O)N[C@H](C(=O)N[C@@H](C)C(=O)N[C@H](C(=O)N[C@@H](CC(C)C)C(=O)NCC(=O)N[C@@H](CCCNC(=N)N)C(=O)N[C@@H](CC(C)C)C(=O)N[C@@H](CO)C(=O)N[C@@H](CCC(N)=O)C(=O)N[C@@H](CCC(=O)O)C(=O)N[C@@H](CC(C)C)C(=O)N[C@@H](Cc1cnc[nH]1)C(=O)N[C@@H](CCC(=O)O)C(=O)N[C@@H](CC(C)C)C(=O)N[C@@H](CCC(N)=O)C(=O)N[C@H](C(=O)N[C@@H](Cc1ccc(O)cc1)C(=O)N1CCC[C@H]1C(=O)N[C@@H](CCCNC(=N)N)C(=O)N[C@H](C(=O)N[C@@H](CCC(=O)O)C(=O)N[C@H](C(=O)NCC(=O)N[C@@H](CO)C(=O)NCC(=O)N[C@H](C(=O)N[C@@H](Cc1ccc(O)cc1)C(N)=O)[C@@H](C)O)[C@@H](C)O)[C@@H](C)O)[C@@H](C)O)C(C)C)[C@@H](C)O | 22 pM | 0% | ≥ 200 µM | 38 pM | ≥ 200 µM | 357 pM | ≥ 200 µM | 50 pM | ≥ 200 µM | > 45 h | 801 pM | 100% | ≥ 200 µM | 0% | ≥ 200 µM | 80 pM | ≥ 200 µM | – | –
3 | CC(C)C[C@H](NC(=O)[C@H](C)NC(=O)[C@H](C)NC(=O)[C@@H](NC(=O)[C@H](CO)NC(=O)[C@H](CC(C)C)NC(=O)[C@H](CCC(=O)O)NC(=O)[C@H](CO)NC(=O)[C@H](C)NC(=O)CCCCCCCCCCCCC(=O)O)[C@@H](C)O)C(=O)NCC(=O)N[C@@H](CCCNC(=N)N)C(=O)N[C@@H](CC(C)C)C(=O)N[C@@H](CO)C(=O)N[C@@H](C)C(=O)N[C@@H](CCC(=O)O)C(=O)N[C@@H](CC(C)C)C(=O)N[C@@H](Cc1cnc[nH]1)C(=O)N[C@@H](CCC(=O)O)C(=O)N[C@@H](CC(C)C)C(=O)N[C@@H](C)C(=O)N[C@H](C(=O)N[C@@H](CC(C)C)C(=O)N1CCC[C@H]1C(=O)N[C@@H](CCCNC(=N)N)C(=O)N[C@H](C(=O)N[C@@H](CCC(=O)O)C(=O)N[C@H](C(=O)NCC(=O)N[C@@H](CO)C(=O)NCC(=O)N[C@@H](CO)C(=O)N1CCC[C@H]1C(N)=O)[C@@H](C)O)[C@@H](C)O)[C@@H](C)O ({C14 diacid}-ASELSTAALGRLSAELHELATLPRTETGSGSP-NH2) | 5 pM | – | ≥ 200 µM | 4 pM | ≥ 200 µM | – | ≥ 200 µM | 7 pM | ≥ 200 µM | – | – | – | ≥ 200 µM | – | ≥ 200 µM | 6 pM | ≥ 200 µM | ≥ 200 µM | 140 pM
4 | CC(C)C[C@H](NC(=O)CNC(=O)[C@H](CO)NC(=O)[C@H](C)NC(=O)CC[C@H](NC(=O)CCCCCCCCCCCCCCCCCCC(=O)O)C(=O)O)C(=O)N[C@@H](CO)C(=O)N[C@H](C(=O)N[C@@H](C)C(=O)N[C@H](C(=O)N[C@@H](CC(C)C)C(=O)NCC(=O)N[C@@H](CCCNC(=N)N)C(=O)N[C@@H](CC(C)C)C(=O)N[C@@H](CO)C(=O)N[C@@H](CCC(N)=O)C(=O)N[C@@H](CCC(=O)O)C(=O)N[C@@H](CC(C)C)C(=O)N[C@@H](Cc1cnc[nH]1)C(=O)N[C@@H](CCC(=O)O)C(=O)N[C@@H](CC(C)C)C(=O)N[C@@H](CCC(N)=O)C(=O)N[C@H](C(=O)N[C@@H](Cc1ccc(O)cc1)C(=O)N1CCC[C@H]1C(=O)N1CCC[C@H]1C(=O)N[C@H](C(=O)N[C@@H](CCC(=O)O)C(=O)N[C@H](C(=O)NCC(=O)N[C@@H](CO)C(=O)NCC(=O)N[C@H](C(=O)N[C@@H](Cc1ccc(O)cc1)C(N)=O)[C@@H](C)O)[C@@H](C)O)[C@@H](C)O)[C@@H](C)O)[C@@H](C)O)[C@@H](C)O ({C20 diacid-γGlu}-ASGLSTATLGRLSQELHELQTYPPTETGSGTY-NH2) | 19 pM | – | ≥ 200 µM | 77 pM | ≥ 200 µM | 98 pM | ≥ 200 µM | 23 pM | ≥ 200 µM | – | 116 pM | – | ≥ 200 µM | – | – | – | ≥ 200 µM | ≥ 200 µM | 53 pM
